This is an account of results in patent US20200362302A1, “METHOD FOR PRODUCING CELL” (FUJIFILM Corporation, priority 2018, published 2020).

For this test, the system named is human iPS cells. In words: treatment efficiency by flow cytometry (positive percentage of CD75). Format: cell-based. The procedure: The culture and the treatment were performed in the same manner as in Example 1 except that the treatment was performed under conditions in which a concentration of PD0325901 was 0.3 to 1.0 μmol/L, and subculture was performed for about 2 weeks after day 9. The completion of the treatment in Example 1 was evaluated by a positive percentage of a cell surface marker CD75. The cultured human iPS cells were detached with TrypLE™ Select, and stained with Alexa Fluor 647 Mouse Anti-Human CD75 antibody. A positive percentage of CD75 was analyzed by a flow cytometer Attune NxT.
(A flow cytometer gives signals particle by particle.)

In the case of `O=C(NOC[C@H](O)CO)c1ccc(F)c(F)c1Nc1ccc(I)cc1F` [PD0325901, N-[(2R)-2,3-dihydroxypropoxy]-3,4-difluoro-2-[(2-fluoro-4-iodophenyl)amino]-benzamide], under “any of the cell lines, PD0325901 within the range of 0.3 to 0.5 μmol/L”, the CD75 result is “not positive”. Also, the “positive percentage of CD75” value (three lines of human iPS cells, PD0325901 at 0.3 to 1.0 μmol/L) was “increase in positive percentage of CD75”.
